According to paper PMC4189421, “Induction of Oligodendrocyte Differentiation and In Vitro Myelination by Inhibition of Rho-Associated Kinase” (ASN NEURO, 2014):

Columns and labels:
[1] = tested on: mouse Nph-OPCs; experiment: Cell proliferation as number of Hoechst-labeled nuclei; format: cell-based; conditions: 1 µM; n = 3 in triplicate wells; DMSO: 522 ± 126
Source text: To determine the effects of ROCK inhibition on OPCs, we developed a high-content image morphological analysis of OPC differentiation using mouse embryonic neural progenitor-derived OPCs (Nph-OPCs). Neural progenitors grow as nonadherent spheroids known as neurospheres (Nph; [Chojnacki & Weiss, 2008]; [Tropepe et al., 1999]), which are considered to be a mixed population of neural stem cells and progenitors of the CNS ([Rao, 1999]; [Zhou & Chiang, 1998]). These cells have been previously used in multiple published studies for the generation of high-yield, high-purity cultures of OPCs from rodents ([Calaora et al., 2001]; [[…] al., 1997]; [Pedraza et al., 2008]). After 24 hr of plating on PDL-coated tissue culture plastic, Nph-OPCs were treated as indicated with differentiation stimuli and further incubated for 72 hr. […] Four images per well were analyzed using a neurite outgrowth module (Molecular Devices, Sunnyvale, CA). We quantified the number of branches and total outgrowth per cell (Figure 1). […] Additionally, nuclear staining by Hoechst allowed the accurate association of branches and processes to their corresponding cell bodies and permitted quantification of total cell numbers in each well. […]

[2] = tested on: mouse neurosphere-derived oligodendrocyte precursor cells (Nph-OPCs); experiment: Morphology-based OPC differentiation assay (branches, outgrowth; high-content imaging); format: cell-based; conditions: mNph-OPC, 72 hr treatment, dose-response
Description: Neurospheres (Nph) were prepared from embryos at 14.5 days of gestation obtained from timed pregnant females of C57/Bl6 mice, as previously described ([Kornblum, Yanni, Easterday, & Seroogy, 2000]; [Pedraza, Monk, Lei, Hao, & Macklin, 2008]). In brief, after separation of meninges and cerebellum, cerebrum tissue was mechanically triturated with a 1-ml micropipette until total tissue dissociation was achieved, filtered through a 70 -µm cell strainer (Fisher Scientific, Pittsburgh, PA), and plated in 25-cm^2 plastic culture flasks (2 brains/flask). Nph proliferation media (NPM) consisted of Dulbecco’s Modified Eagle Medium (DMEM)/F12, B27 neuronal supplement (Gibco, Baltimore, MD) and 10 ng/ml […] (EGF; Sigma, St. Louis, MO). After 48 to 72 hr, floating Nphs were passaged at a 1 : 1 ratio into 75-cm^2 culture flasks. After a further 48 to 72 hr, they were passaged into 150-cm^2 flasks. Subsequent passages were performed every 3 to 4 days at a ratio of 1 : 2 or 1 : 3 in the same media, and Nph were used to generate OPCs for no more than 12 passages.
OPCs were generated by chemical disaggregation of Nph with a mouse neural progenitor dissociation kit following the manufacturer instructions (NeuroCult, StemCell Technologies, AB, Canada). The single-cell suspension was then filtered through a 40 -µm cell strainer and plated on poly-D-lysine (PDL)-coated plates. […]
To determine the effects of ROCK inhibition on OPCs, we developed a high-content image morphological analysis of OPC differentiation using mouse embryonic neural progenitor-derived OPCs (Nph-OPCs). […] Four images per well were analyzed using a neurite outgrowth module (Molecular Devices, Sunnyvale, CA). We quantified the number of branches and total outgrowth per cell (Figure 1). […] Additionally, nuclear staining by Hoechst allowed the accurate association of branches and processes to their corresponding cell bodies and permitted quantification of total cell numbers in each well.

[3] = tested on: MYPT1 phosphorylation in mNph-OPC; experiment: MYPT1 phosphorylation (sandwich ELISA, western blot) as ROCK target engagement; conditions: 100 µM, 4-hr mNph-OPC treatment
Description: Tris-glycine acrylamide-bysacrylamide gradient gel electrophoresis was performed as follows: After washing the cells with ice-cold PBS, protein lysates were made by adding 50 µl of PhosphoSafe extraction reagent (EMD Millipore) supplemented with antiprotease cocktail (cOmplete; Roche, Branford, CT) onto each 100-mm^2 cell culture plate. After detaching the cells with the help of a cell scraper and disrupting cell membranes by sonication, the protein extracts were centrifuged (10,000 g, 10 min, 4℃) and the supernatants separated. Protein content was measured by the BCA protein determination method (Biorad, Hercules, CA), and 30 µg of total protein was mixed with SDS sample buffer (Laemmli) supplemented with 1% β-mercaptoethanol. After heating the samples to 70℃ for 10 min, they were loaded onto 4% to 20% acryl-bysacrylamide gradient gels, and electrophoresis was carried out at 120 volts with constant amperage.
Resolved proteins were then transferred onto nitrocellulose membranes using the iBlot methodology and device (Life technologies). […] Secondary detection was performed using Li-Cor IRDye secondary anti-mouse and anti-rabbit antibodies, and near-infrared signal was detected by Li-Cor’s Odyssey imaging system.
We assessed MYPT1 phosphorylation in Nph-OPCs treated for 4 hr with ROCK inhibitors in a dose-response experiment and using a sandwich ELISA as a measuring method (MBL International).

[4] = tested on: rat mixed glial OPCs; experiment: Myelin protein expression in rat mixed glia-derived OPCs (qPCR, MBP ELISA); format: cell-based
Description: Rat postnatal OPCs were obtained as described elsewhere according to the original procedure of [McCarthy and […] (1980)]. In brief, postnatal Day 1 rat pups were sacrificed, and cerebral cortices dissected and mechanically dissociated in medium composed of DMEM, 10% heat inactivated fetal bovine serum, and 5 μg/ml penicillin/streptomycin. Dissociated cells were plated and maintained in 75-cm^2 culture flasks for 10 days, replenishing with fresh media at Days 3 and 7. At Day 10, the flasks were shaken on a heated (37°C) shaker for 1 hr at 110 rpm to separate loosely attached microglial cells. The medium was replenished, and the cells incubated for the remainder of the day. To dislodge OPCs from the astrocyte monolayer, flasks were shaken overnight (210 rpm, 37°C). […] Cells were then plated on PDL-coated tissue culture plastic and treated with test compounds. […] The results are presented as specific mRNA expression relative to either β-actin or β-tubulin, used as internal controls as indicated. OPCs isolated from rat mixed glial cultures are known to mature readily in the absence of mitogens achieving a premyelinating OL stage as determined by the expression of the cell surface sulfatide O4, and the myelin proteins MBP and PLP among others ([Armstrong, 1998]; [Barbarese & Pfeiffer, 1981]; [[…], 1999]; [Jung-[…], Schumacher, Robel, & Baulieu, 1996]; [Konola, Tyler, Yamamura, & Lees, 1991]). They also display marked morphological changes, progressing from bipolar to multibranched cells generating membranous structures, and probably represent a later developmental stage than Nph-OPC. In rat mixed glial OPCs, we measured myelin protein expression at the RNA level by qPCR and MBP production by ELISA (MBL International, Woburn, MA).

[5] = target: T1, ROCKI (Homo sapiens, UniProt Q13464); conditions: read-out: Activity, IC50 ROCKI, Table 1, ref Goodman et al., 2007, Nichols et al., 2009, heading: Activity; cited from earlier work
T1 construct: purchased EMD Millipore

[6] = target: T2, ROCKII (Homo sapiens, UniProt O75116); conditions: read-out: Activity, IC50 ROCKII, Table 1, ref Goodman et al., 2007, Nichols et al., 2009, heading: Activity; cited from earlier work
T2 construct: purchased EMD Millipore
T2 sequence (O75116 whole entry, species assumed): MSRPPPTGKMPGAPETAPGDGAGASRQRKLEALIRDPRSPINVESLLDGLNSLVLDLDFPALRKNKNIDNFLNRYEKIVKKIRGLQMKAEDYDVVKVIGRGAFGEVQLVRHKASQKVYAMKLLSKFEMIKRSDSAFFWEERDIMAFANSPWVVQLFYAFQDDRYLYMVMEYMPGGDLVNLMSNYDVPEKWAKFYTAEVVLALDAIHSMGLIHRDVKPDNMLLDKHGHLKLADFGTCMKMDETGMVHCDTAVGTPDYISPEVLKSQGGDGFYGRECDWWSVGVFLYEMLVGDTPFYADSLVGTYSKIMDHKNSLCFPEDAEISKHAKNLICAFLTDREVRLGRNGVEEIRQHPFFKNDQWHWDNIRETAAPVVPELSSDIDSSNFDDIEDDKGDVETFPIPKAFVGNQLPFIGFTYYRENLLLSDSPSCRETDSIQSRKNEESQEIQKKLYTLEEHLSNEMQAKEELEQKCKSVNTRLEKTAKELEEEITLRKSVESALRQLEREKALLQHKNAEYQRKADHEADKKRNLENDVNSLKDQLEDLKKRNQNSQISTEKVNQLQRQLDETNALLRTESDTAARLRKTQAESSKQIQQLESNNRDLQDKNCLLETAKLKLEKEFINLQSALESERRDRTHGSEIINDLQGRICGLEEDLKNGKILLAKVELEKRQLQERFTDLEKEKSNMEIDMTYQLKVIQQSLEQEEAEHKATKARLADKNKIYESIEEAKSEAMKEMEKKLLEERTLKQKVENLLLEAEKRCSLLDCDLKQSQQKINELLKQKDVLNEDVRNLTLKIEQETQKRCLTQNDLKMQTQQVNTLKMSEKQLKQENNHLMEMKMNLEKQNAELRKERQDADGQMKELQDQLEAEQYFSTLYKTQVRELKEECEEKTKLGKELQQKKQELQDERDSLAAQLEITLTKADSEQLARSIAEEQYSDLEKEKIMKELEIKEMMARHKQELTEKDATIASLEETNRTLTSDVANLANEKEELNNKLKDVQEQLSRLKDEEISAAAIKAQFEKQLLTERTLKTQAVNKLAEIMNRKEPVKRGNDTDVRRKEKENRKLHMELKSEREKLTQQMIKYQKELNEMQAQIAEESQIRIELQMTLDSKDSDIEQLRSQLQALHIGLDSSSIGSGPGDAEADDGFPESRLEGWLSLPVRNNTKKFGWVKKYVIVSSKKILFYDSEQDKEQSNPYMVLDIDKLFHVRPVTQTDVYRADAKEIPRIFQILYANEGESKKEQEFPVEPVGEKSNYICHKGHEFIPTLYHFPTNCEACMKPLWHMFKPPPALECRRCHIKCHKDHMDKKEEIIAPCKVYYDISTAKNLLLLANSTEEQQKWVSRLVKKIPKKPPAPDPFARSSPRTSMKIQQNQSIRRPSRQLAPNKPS

T1 sequence (Q13464 whole entry, species assumed): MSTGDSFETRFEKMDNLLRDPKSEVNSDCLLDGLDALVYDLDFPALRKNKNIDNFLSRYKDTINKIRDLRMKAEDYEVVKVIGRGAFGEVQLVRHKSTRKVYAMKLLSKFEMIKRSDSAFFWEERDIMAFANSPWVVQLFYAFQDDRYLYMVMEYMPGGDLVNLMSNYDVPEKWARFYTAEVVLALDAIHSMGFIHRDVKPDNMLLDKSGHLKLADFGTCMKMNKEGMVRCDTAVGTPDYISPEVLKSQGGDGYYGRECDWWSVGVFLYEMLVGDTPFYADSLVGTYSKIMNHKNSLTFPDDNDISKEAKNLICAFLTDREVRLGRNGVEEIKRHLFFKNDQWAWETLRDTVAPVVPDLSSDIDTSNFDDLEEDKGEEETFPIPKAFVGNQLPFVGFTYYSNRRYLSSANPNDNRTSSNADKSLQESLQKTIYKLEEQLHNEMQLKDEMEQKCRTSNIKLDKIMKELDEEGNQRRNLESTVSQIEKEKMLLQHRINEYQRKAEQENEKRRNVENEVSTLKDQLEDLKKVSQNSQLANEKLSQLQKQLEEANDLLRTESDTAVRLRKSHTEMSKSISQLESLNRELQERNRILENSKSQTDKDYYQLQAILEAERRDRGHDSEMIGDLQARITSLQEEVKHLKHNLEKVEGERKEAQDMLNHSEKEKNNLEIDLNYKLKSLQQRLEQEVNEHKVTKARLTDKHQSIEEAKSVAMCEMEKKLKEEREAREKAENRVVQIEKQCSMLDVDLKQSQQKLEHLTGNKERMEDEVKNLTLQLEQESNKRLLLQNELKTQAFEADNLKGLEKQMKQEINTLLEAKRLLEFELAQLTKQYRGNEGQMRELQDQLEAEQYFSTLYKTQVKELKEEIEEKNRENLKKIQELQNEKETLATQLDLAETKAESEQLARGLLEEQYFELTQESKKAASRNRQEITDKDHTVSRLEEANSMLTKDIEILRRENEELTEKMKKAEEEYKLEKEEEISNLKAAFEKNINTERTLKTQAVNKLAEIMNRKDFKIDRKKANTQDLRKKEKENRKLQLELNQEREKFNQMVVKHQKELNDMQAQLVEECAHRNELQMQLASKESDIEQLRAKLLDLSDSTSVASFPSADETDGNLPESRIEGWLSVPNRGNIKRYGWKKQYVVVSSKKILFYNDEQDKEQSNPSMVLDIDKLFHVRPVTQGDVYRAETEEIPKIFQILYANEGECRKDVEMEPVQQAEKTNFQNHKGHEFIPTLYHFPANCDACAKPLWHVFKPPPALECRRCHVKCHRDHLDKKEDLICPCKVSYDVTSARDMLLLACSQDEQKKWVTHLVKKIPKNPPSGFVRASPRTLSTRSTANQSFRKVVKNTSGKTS

SMILES: O=S(=O)(c1cccc2cnccc12)N1CCCNCC1 [Fasudil]
- Number of Hoechst-labeled nuclei [1]: 598 ± 21 cells/well
- OPC differentiation effect (processes and branches) [2]: minor differentiation effect
- Decrease of MYPT1 phosphorylation (ELISA) [3]: 60%
- Expression of MBP, PLP, and MOG mRNAs (qPCR) ([4]; 3 days maturation +4 days treatment, concentrations as low as 0.1 µM): significant increase
- MBP at the protein level (ELISA) ([4]; treatments at 24 hr and 72 hr after plating): increased expression

SMILES: CC1=C(C(=O)Nc2cc3cn[nH]c3cc2F)C(c2ccc(C(F)(F)F)cc2)CC(=O)N1 (centres unmarked) [GSK 429286, 4-[4-(trifluoromethyl)phenyl]-N-(6-fluoro-1H-indazol-5-yl)-2-methyl-6-oxo-1,4,5,6-tetrahydro-3-pyridinecarboxamide]
- IC50 ([2]; Mus musculus, Oligodendrocyte precursor cell, read-out: IC50, generation of branches in OPC differentiation assay): 2300 nM
- IC50 [5]: 14 nM
- IC50 [6]: 48 nM
